These results are taken from ChEMBL document CHEMBL3044846, “Synthesis and structureactivity relationships of serotonin derivatives effect on -glucosidase inhibition” (Med Chem Res, 2012).

Active and inactive are the calls of the source. The rule behind the calls is not given here.

The target in assay [1] is Alpha-glucosidase MAL62 (Saccharomyces cerevisiae) (UniProt P07265). As to the kind of experiment: Inhibition of yeast alpha-glucosidase using p-nitrophenyl-alpha-D-glucopyranoside as substrate preincubated at 300 uM for 10 min before substrate addition and measured after 10 min by spectrophotometry.
The target of assay [2] is T1, Alpha-glucosidase MAL62 (Saccharomyces cerevisiae, UniProt P07265). The assay is described as follows: (§1) Inhibition of yeast alpha-glucosidase using p-nitrophenyl-alpha-D-glucopyranoside as substrate preincubated for 10 min before substrate addition and measured after 10 min by spectrophotometry.
The target in assay [3] is Alpha-glucosidase MAL62 (Saccharomyces cerevisiae) (UniProt P07265). Described as §1.
Assay [4] has as its target T1, Alpha-glucosidase MAL62. As to the kind of experiment: Uncompetitive inhibition of yeast alpha-glucosidase by Lineweaver-Burk plot analysis.
The target in assay [5] is T1, Alpha-glucosidase MAL62. The assay is described as follows: Competitive inhibition of yeast alpha-glucosidase by Dixon plot analysis.
Assay [6] addresses Alpha-glucosidase MAL62 (Saccharomyces cerevisiae) (UniProt P07265). The assay is described as follows: Competitive inhibition of yeast alpha-glucosidase by Lineweaver-Burk plot analysis.
For assay [7], the target named is T1, Alpha-glucosidase MAL62. As to the kind of experiment: Mixed-type inhibition of yeast alpha-glucosidase by Lineweaver-Burk plot analysis.

T1 sequence (P07265 whole entry): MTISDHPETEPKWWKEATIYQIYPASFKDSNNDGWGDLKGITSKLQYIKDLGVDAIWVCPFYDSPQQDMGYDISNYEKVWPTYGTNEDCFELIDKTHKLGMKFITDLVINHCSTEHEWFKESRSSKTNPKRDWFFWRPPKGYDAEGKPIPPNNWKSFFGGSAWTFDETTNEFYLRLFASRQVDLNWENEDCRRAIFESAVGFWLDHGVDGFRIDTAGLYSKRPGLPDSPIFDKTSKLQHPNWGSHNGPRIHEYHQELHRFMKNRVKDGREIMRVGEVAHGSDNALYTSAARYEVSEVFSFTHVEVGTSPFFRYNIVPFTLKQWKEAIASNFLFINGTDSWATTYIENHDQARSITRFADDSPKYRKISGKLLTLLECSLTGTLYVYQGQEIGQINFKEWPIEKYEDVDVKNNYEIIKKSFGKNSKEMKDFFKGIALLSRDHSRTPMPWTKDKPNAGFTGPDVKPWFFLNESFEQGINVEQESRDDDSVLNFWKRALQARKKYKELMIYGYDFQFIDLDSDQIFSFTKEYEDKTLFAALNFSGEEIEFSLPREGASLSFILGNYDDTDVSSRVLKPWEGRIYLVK
Alpha-glucosidase MAL62 (Saccharomyces cerevisiae), sequence (P07265 whole entry): as above

Usually inhibition stands for the relative decrease from the control value, in per cent. For orientation: IC50 means the midpoint of a concentration-inhibition curve. Higher therefore signals weaker potency in that assay. With `O=C(O)/C=C/c1ccc(O)c(O)c1` [CAFFEIC ACID], in assay [1], the inhibition amounted to 10.2%. Besides, in assay [2], the IC50 was > 300 µM.
For `O=C(O)/C=C/c1ccccc1` [CINNAMIC ACID] the same measures were 4.5% and > 300 µM.
Taken in the same sequence, the figures for `O=C(O)/C=C/c1ccc(O)cc1` [COUMARIC ACID] were 4.9% and > 300 µM.
The compound `OC[C@H]1NC[C@H](O)[C@@H](O)[C@@H]1O` [DUVOGLUSTAT] registered an IC50 in assay [2] of 278 µM.
Same read-out and setting: the result for `COc1cc(/C=C/C(=O)O)ccc1O` [FERULATE] reads > 300 µM.
Take `COc1ccc(/C=C/C(=O)NCCc2c[nH]c3ccc(O)cc23)cc1OC` [N-3,4-DIMETHOXY CINNAMOYL SEROTONIN]: in assay [3], the inhibition entry was “Dose-dependent effect”. Further, the IC50 in assay [2] was > 300 µM.
The Ki is the equilibrium dissociation constant of an inhibitor or competing ligand from its target. For the compound `O=C(/C=C/c1ccc(O)c(O)c1)NCCc1c[nH]c2ccc(O)cc12` [N-CAFFEOYLSEROTONIN], in assay [4], the Ki was found to be 64.4 µM. Further, in assay [3], the inhibition entry is “Dose-dependent effect”. In addition, the IC50 in assay [2] was 48.2 µM.
Regarding `O=C(/C=C/c1ccccc1)NCCc1c[nH]c2ccc(O)cc12` [N-CINNAMOYL SEROTONIN], the Ki in assay [5] is 133 µM. Also, the inhibition entry in assay [6] is “Active”. In addition, the inhibition result in assay [3] is “Dose-dependent effect”. The same compound came in with an IC50 in assay [2] of 80.8 µM.
In the case of `O=C(CCc1ccc(O)cc1)NCCc1c[nH]c2ccc(O)cc12` [N-DIHYDRO-P-COUMAROYLSEROTONIN], the IC50 in assay [2] was > 300 µM.
Still for that read-out and setting: the result for `O=C(CCc1ccc(O)c(O)c1)NCCc1c[nH]c2ccc(O)cc12` [N-DIHYDROCAFFEOYL SEROTONIN] reads > 300 µM; that for `O=C(CCc1ccccc1)NCCc1c[nH]c2ccc(O)cc12` [N-DIHYDROCINNAMOYL SEROTONIN], > 300 µM.
Same read-out and setting: with `COc1cc(CCC(=O)NCCc2c[nH]c3ccc(O)cc23)ccc1O` [N-DIHYDROFERULOYL SEROTONIN] the figure was > 300 µM; with `COc1cc(CCC(=O)NCCc2c[nH]c3ccc(O)cc23)cc(OC)c1O` [N-DIHYDROSINAPOYL SEROTONIN], > 300 µM.
As to `COc1cc(/C=C/C(=O)NCCc2c[nH]c3ccc(O)cc23)ccc1O` [N-FERULOYL SEROTONIN], in assay [3], the inhibition result was “Dose-dependent effect”. In assay [2], this compound gave an IC50 of 99.8 µM. The compound further came in with a Ki in assay [7] of 130 µM.
Regarding `COc1ccc(/C=C/C(=O)NCCc2c[nH]c3ccc(O)cc23)cc1O` [N-ISOFERULOYL SEROTONIN], the inhibition entry in assay [3] was “Dose-dependent effect”. Moreover, the IC50 in assay [2] is > 300 µM.
The compound `O=C(/C=C/c1ccc(O)cc1)NCCc1c[nH]c2ccc(O)cc12` [N-P-COUMAROYL SEROTONIN] returned an inhibition constant Ki in assay [4] of 81.6 µM. For the same compound, the inhibition result in assay [3] is “Dose-dependent effect”. In assay [2], this compound displayed an IC50 of 47.2 µM.
For `COc1ccc(/C=C/C(=O)NCCc2c[nH]c3ccc(O)cc23)cc1` [N-P-METHOXY CINNAMOYL SEROTONIN], the inhibition entry in assay [3] is “Dose-dependent effect”. For the same compound, in assay [2], the IC50 was > 300 µM.
Turning to `COc1cc(/C=C/C(=O)NCCc2c[nH]c3ccc(O)cc23)cc(OC)c1O` [N-SINAPOYL SEROTONIN], the inhibition result in assay [3] was “Dose-dependent effect”. This compound yielded an IC50 in assay [2] of 66.2 µM. In assay [7], this compound displayed a Ki of 111 µM.
With `NCCc1c[nH]c2ccc(O)cc12` [SEROTONIN], the inhibition in assay [1] was 25.6%. Also, the IC50 in assay [2] is > 300 µM.
Compound `COc1cc(/C=C/C(=O)O)cc(OC)c1O` [SINAPINATE] returned an IC50 in assay [2] of 145 µM.
